Measurements taken from patent US12263166B2, “Methods of treating cancers having a BRCA1 and/or BRCA2 mutation(s)” (Dana-Farber Cancer Institute, Inc., priority 2017, dated 2025).

Experiments:
[1] = test system: UWB1.289 (BRCA1-mutant ovarian cancer cell line); experiment: Colony formation (sensitivity) assay in UWB1.289; assay type: cell-based; conditions: BRCA1-mutant UWB1.289, compared to UWB1.289+BRCA1
Procedure: (§1) Cells were transfected with siRNA or plasmid 18-24 h before being plated for colony formation assays. Cells were counted and plated in triplicates in 6-well plates. For treatment with ML323, plated cells were allowed to adhere overnight before treatment with ML323 the next day. At the end of the experiment, cells were fixed with methanol for 10 min at −20° C. then stained with crystal violet. Quantification of cell growth area was performed with ImageJ.

USP1 = molecular target: T1, USP1 (Homo sapiens, UniProt O94782); experiment: Western blot of USP1 with and without ML323; assay type: cell-based
T1 construct: endogenous in cells
T1 sequence (Q8TAF3 whole entry partner, one chain of several): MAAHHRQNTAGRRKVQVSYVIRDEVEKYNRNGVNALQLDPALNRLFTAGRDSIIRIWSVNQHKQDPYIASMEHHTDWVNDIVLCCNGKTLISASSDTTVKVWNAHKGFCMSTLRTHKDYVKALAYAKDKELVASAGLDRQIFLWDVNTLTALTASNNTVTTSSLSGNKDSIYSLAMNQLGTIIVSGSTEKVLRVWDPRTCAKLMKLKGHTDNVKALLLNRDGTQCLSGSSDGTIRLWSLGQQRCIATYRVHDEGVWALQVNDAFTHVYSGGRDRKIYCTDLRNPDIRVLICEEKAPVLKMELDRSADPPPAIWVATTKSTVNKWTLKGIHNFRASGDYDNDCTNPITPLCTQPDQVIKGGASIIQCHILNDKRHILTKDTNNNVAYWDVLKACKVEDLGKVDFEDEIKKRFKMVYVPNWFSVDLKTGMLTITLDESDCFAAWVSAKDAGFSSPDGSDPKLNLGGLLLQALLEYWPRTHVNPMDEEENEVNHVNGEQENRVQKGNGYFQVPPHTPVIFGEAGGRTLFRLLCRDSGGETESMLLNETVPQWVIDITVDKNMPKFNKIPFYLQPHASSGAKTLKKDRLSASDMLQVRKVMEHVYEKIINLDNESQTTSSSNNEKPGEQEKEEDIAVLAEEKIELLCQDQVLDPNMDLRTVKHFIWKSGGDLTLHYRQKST
Procedure: FIG. 8F. Western blot of USP1 with and without ML323 treatment. Following inhibition of USP1 deubiquitinating enzyme (DUB) activity, USP1 autocleavage is inhibited, resulting in a more intense top USP1 band. In addition, Ser313 phosphorylation is induced, resulting in a higher MW band in the blot.
Cells were lysed with lysis buffer (300 mM NaCl, 50 mM Tris-Cl, 1 mM EDTA, 0.5% NP-40), lysates resolved on denaturing Nupage (Invitrogen, Carlsbad, CA) polyacrylamide gels and transferred onto nitrocellulose membranes. Membranes were blocked with 5% milk in TBST, and probed with primary and secondary antibodies respectively, then detected with chemiluminescence (Western Lightning, Perkin Elmer, Waltham, MA).

FANCD2-Ub = conditions: cited from earlier work
[2] = molecular target: T2, wild-type, full-length USP1 (Homo sapiens, UniProt O94782); experiment: Ub-CHOP2 deubiquitination assay, WT-USP1; assay type: biochemical
T2 construct: purchased Boston Biochem / R&D systems E564
T2 sequence (O94782 1-785): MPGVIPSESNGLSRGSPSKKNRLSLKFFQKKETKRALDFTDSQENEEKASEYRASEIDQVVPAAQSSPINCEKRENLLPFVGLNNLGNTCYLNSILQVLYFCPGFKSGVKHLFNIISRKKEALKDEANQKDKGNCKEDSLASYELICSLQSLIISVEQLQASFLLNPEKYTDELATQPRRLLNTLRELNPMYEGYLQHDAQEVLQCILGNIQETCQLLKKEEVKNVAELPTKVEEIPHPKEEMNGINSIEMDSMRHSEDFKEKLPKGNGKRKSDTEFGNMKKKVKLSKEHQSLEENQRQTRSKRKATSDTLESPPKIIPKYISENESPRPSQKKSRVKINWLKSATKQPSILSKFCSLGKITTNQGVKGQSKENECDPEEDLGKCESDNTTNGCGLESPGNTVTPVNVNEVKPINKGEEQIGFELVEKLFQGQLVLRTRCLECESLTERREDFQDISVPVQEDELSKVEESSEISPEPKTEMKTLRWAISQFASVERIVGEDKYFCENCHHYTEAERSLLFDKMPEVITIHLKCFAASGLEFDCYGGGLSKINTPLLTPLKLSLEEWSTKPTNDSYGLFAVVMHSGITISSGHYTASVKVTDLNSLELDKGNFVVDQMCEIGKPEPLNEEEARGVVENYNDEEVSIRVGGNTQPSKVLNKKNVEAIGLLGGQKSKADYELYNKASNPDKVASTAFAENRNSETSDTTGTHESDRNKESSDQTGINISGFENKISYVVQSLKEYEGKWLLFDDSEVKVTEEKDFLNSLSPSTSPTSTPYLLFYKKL
Procedure: (§2) FIG. 11B. Ub-CHOP2 assay of WT-USP1 and Trunc-USP1 with and without USP1 inhibitor ML323.
(§3) Preparation of recombinant USP1 and UAF1 wild type and mutant proteins in SF9 cells and Ub-AMC assays were performed by the method as described in Cohn M A, Kowal P, et al. A UAF1-containing multisubunit protein complex regulates the Fanconi anemia pathway. Molecular cell. 2007; 28(5):786-97. Ub-CHOP2 assays (Life Sensors, Malvern, PA, PR1101) were performed according to manufacturer's instructions. Ub-AMC assays were performed by the methods as described in Cohn M A et al., UAF1 is a subunit of multiple deubiquitinating enzyme complexes. The Journal of biological chemistry. 2009; 284(8):5343-51; Cohn M A, et al. A UAF1-containing multisubunit protein complex regulates the Fanconi anemia pathway. Molecular cell. 2007; 28(5):786-97; Kee Y, et al., WDR20 regulates activity of the USP12 UAF1 deubiquitinating enzyme complex. Journal of Biological Chemistry. 2010; 285(15):11252-7; and Mistry H, Hsieh G, et al. Small-molecule inhibitors of USP1 target ID1 degradation in leukemic cells. Molecular cancer therapeutics. 2013; 12(12):2651-62.

[3] = test system: BRCA1 deficient MDA-MB-436 cells; experiment: Replication combing (fiber) assay in MDA-MB-436 after hydroxyurea; assay type: cell-based; conditions: 10 μM ML323 for 24 h; effect not increased with USP1 silencing
Procedure: FIG. 20B. Schematic of the experimental design for the fiber assay, graphical quantification of fiber assay measuring replication fork stability in MDA-MB-436 cells following treatment with either siCtrl or siUSP1, untreated or treated with 10 μM of ML323 for 24 h.
Replication combing assay was performed using the FiberComb machine (Genomic Vision, Bagneux, France). Br iefly, cells were treated with CldU, IdU then HU, with 3 PBS washes between each treatment. Cells were then trypsinized, counted and embedded in low melting point agarose plugs, then treated with proteinase k overnight. Agarose plugs were then washed and digested with agarase. Agarase-treated samples were then poured into FiberComb wells and combed onto silanized coverslips. Coverslips were probed with rat anti-BrdU antibody (clone BU1/75 (ICR1) specific to CldU, Life Technologies, Woburn, MA, #MA1-82088) and mouse anti-BrdU Antibody (specific to IdU, BD Biosciences, Woburn, MA, #347580) and visualized by fluorescence microscopy. Pictures were taken of at least 100 fibers per condition. Fibers were measured with ImageJ and graphed.

[4] = test system: PARP inhibitor resistant BRCA1-deficient cells (53BP1 silencing); experiment: Sensitivity of PARP inhibitor resistant cells with restored HR (53BP1 silencing); assay type: cell-based
USP1-Trunc = experiment: Ub-CHOP2 deubiquitination assay, Trunc-USP1; assay type: biochemical
Procedure: as §2, §3

[5] = molecular target: T3, full-length USP1 / forked DNA (Homo sapiens, UniProt O94782); experiment: Electromobility shift assay of USP1 with forked DNA; assay type: binding; conditions: 0-300 nM USP1, 0-1000 nM ML323, forked DNA
T3 construct: purchased Boston Biochem / R&D systems E564
T3 sequence (O94782 1-785): T2 sequence (O94782 1-785)
Procedure: FIG. 11C. Electromobility shift assay of 0-300 nM of USP1 incubated with 0-1000 nM of ML323 and forked DNA.
Recombinant USP1 and UAF1 proteins from R&D systems (E564, E566) were used for some electromobility shift assays and in vitro deubiquitination assays. Electromobility shift assays were performed by pre-incubating fluorophore (Cy3)-tagged DNA and purified protein in binding buffer (20 mM Hepes (pH 7.6), 0.1M KCl, 5 mM MgCl2, 3% (v/v) glycerol, 0.25 mg/ml BSA, 0.05 mM EDTA, 0.5 mM DTT, 0.01% (v/v) NP-40) for 30 min on ice. Samples were then loaded onto 6% polyacrylamide gels and ran at 65V in 0.5× TBE for 135 min at 4° C. Gels were visualized using the LAS-4000 imaging system (GE Healthcare Life Sciences, Pittsburgh, PA). DNA used for Ub-AMC, Ub-CHOP2 and electromobility shift assay were 40 bp in length and were designed to have minimal potential of secondary structure formation.

[6] = test system: BRCA1-deficient UWB1.289 cells; experiment: Colony assay, ML323 combined with Olaparib in UWB1.289; assay type: cell-based; conditions: 0 nM or 25 nM Olaparib and increasing doses of ML323
Procedure: FIG. 14. USP1 inhibition is non-epistatic with PARP inhibitors in BRCA1 deficient cells (Top: BRCA1-deficient UWB1.289 cells treated with 0 nM or 25 nM of Olaparib and increasing doses of USP1 inhibitor ML323. Bottom: Representative pictures of UWB1.289 colonies).
as §1

[7] = test system: PARP inhibitor resistant UWB1.289 SYR14 cells; experiment: Clonogenic assay in PARP inhibitor resistant UWB1.289 SYR14; assay type: cell-based
Procedure: FIG. 23A. Quantification of colonies after clonogenic assay of parental BRCA1-deficient UWB1.289 cells and PARP inhibitor resistant UWB1.289 SYR14 cells treated with USP1 inhibitor ML323.
as §1

With Cc1cnc(-c2ccccc2C(C)C)nc1NCc1ccc(-n2ccnn2)cc1 [ML323] the “growth of UWB1.289 cells” value [1] was “reduced growth”, the “USP1 Ser313 phosphorylation” value (USP1) was “induced” and the USP1 autocleavage (USP1) was “inhibited”. For the same compound, the FANCD2 deubiquitination (FANCD2-Ub) was “blocks”, the “cellular FANCD2-Ub level” value (FANCD2-Ub) was “accumulation” and the “DUB activity of wild-type, full-length USP1” value [2] was “inhibits”. The “fork degradation following hydroxyurea treatment” value [3] was “enhanced fork degradation”, the “sensitivity of PARP inhibitor resistant cells resulting from restoration of HR” value [4] was “resistant” and the “DUB activity of USP1-Trunc” value (USP1-Trunc) was “inhibits”. For the same compound, the “DNA binding activity of full-length USP1” value [5] was “does not interfere”, the “interaction of USP1 inhibition with PARP inhibitors in BRCA1 deficient cells” value [6] was “non-epistatic” and the “sensitivity of PARP inhibitor resistant cells resulting from fork stabilization” value [7] was “remained sensitive”.
